Reference: patent US12048684B2, “Arctigenin liquid nano-preparation and preparation method thereof” (Wuhan Academy of Agricultural Sciences, priority 2022, dated 2024)

Experiment: Solubility in pure water at room temperature
Type: physicochemical

solubility (water solubility of arctigenin): < 0.05%
SMILES: COc1cc(C[C@H]2C(=O)OC[C@@H]2Cc2ccc(OC)c(OC)c2)ccc1O [arctigenin raw material, arctigenin]
